Laboratory results taken from patent EP3184516A1, “CRYSTALLINE INCLUSION COMPLEXES OF MIRABEGRON WITH BETA-CYCLODEXTRIN” (Enantia, S.L., priority 2015, dated 2017).
Converted amounts (≈) assume the structure as drawn. Counter-ions that a name gives are not always drawn. Like-named read-outs stand apart in the source and are kept apart here.

Key:
[1] = cited from earlier work
[2] = according to EP1440969A1, cited from earlier work
[3] = Water solubility study at room temperature by HPLC analysis of saturated water solutions; format: physicochemical
Protocol: A water solubility study at room temperature was performed comparing Mirabegron Form α and crystalline inclusion complexes of Mirabegron with β-cyclodextrin Forms I and II by HPLC analysis of saturated water solutions.
A slurring of Mirabegron Form α was performed under the same conditions.
A slurring of Mirabegron Form α (20 mg) was performed in the same conditions.

[4] = Kalariya et al., RSC Adv. 2015; cited from earlier work
[5] = Solubility tests performed by the present inventors; format: physicochemical
Source text: Two different crystal forms of Mirabegron free base, named as α-form and β-form, were also disclosed in EP1440969A1.

## Nc1nc(CC(=O)Nc2ccc(CCNC[C@H](O)c3ccccc3)cc2)cs1 [Mirabegron Form α, 2-(2-amino-1,3-thiazol-4-yl)-N-[4-(2-{[(2R)-2-hydroxy-2-phenylethyl]amino}ethyl)phenyl]acetamide]
[1]; according to EP1440969A1
  solubility in water (in words): practically insoluble
[2]; listed as α-form
  hygroscopicity: non-hygroscopic
  stability of crystal form: stable
[3]; 20 mg stirred in 0.8 ml of water for 19h, mother liquor (Form I experiment)
  HPLC peak area corresponding to Mirabegron: 1728 counts
[3]; 24 mg (Form α 20 mg) stirred in 1 ml of water for 19h, mother liquor (Form II experiment)
  HPLC peak area corresponding to Mirabegron: 1570 counts

## Nc1nc(CC(=O)Nc2ccc(CCNC[C@H](O)c3ccccc3)cc2)cs1 [Mirabegron, 2-(2-amino-1,3-thiazol-4-yl)-N-[4-(2-{[(2R)-2-hydroxy-2-phenylethyl]amino}ethyl)phenyl]acetamide]
[4]
  degradation under hydrolytic and oxidative stress conditions: degrades
  stability under thermal and photolytic conditions: stable
[1]; free base, AusPar / FDA prescribing information
  solubility in water: 82 µg/mL (≈ 207 µM)
[5]
  solubility in water at room temperature: less than 50 volumes

## Nc1nc(CC(=O)Nc2ccc(CCNC[C@H](O)c3ccccc3)cc2)cs1 [dihydrochloride salt]
[2]
  hygroscopicity: strongly hygroscopic
  stability of crystal form: unstable

## Nc1nc(CC(=O)Nc2ccc(CCNC[C@H](O)c3ccccc3)cc2)cs1 [β-form, 2-(2-amino-1,3-thiazol-4-yl)-N-[4-(2-{[(2R)-2-hydroxy-2-phenylethyl]amino}ethyl)phenyl]acetamide]
[2]
  hygroscopicity: low hygroscopicity
  stability of crystal form: metastable
